# What was measured:
# [1] = target: T1, Ba/F3 Axl cells (Homo sapiens, UniProt P30530); experiment: Ba/F3 Axl cell proliferation, CellTiter-Glo Luminescent Cell Viability Assay; assay type: cell-based; conditions: 100 ng/mL rhGas6, 72 h incubation, read-out: IC50 (nM) against Ba/F3 Axl cells
# T1 sequence (P30530 1-894): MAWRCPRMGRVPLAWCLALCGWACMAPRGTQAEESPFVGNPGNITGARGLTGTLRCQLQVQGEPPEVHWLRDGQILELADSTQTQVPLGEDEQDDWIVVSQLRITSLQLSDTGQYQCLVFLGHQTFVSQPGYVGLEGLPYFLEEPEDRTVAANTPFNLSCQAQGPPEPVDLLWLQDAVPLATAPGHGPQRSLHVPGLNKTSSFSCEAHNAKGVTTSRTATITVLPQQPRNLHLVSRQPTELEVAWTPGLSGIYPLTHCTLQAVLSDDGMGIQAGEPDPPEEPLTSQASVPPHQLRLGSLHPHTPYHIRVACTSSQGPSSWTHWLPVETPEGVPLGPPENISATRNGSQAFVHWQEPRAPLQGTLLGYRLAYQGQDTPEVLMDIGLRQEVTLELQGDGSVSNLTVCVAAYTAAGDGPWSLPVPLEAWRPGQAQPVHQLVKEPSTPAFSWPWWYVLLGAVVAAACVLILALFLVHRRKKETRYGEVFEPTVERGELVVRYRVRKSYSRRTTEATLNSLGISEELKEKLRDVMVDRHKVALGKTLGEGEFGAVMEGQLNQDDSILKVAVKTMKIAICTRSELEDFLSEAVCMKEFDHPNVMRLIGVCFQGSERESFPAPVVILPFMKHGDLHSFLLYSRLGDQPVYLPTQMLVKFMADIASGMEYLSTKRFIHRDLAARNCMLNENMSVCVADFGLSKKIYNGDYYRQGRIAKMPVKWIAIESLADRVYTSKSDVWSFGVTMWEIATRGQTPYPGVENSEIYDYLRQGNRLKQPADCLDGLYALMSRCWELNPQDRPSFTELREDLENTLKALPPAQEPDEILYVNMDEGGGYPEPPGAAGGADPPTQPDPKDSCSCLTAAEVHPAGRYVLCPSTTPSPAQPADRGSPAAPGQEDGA
# Description: Test method: the inhibitory activity of the compounds against Ba/F3 Axl cell proliferation was evaluated using CellTiter-Glo® Luminescent Cell Viability Assay Kit (Promega).
# Test procedures: when thawing Ba/F3 Axl cells, the cell cryopreservation tube was shaken rapidly in a water bath at 37° C. to thaw the cells in 1 min. The cell suspension after thawing was mixed with RPMI1640 culture medium containing 10% FBS and centrifuged for 5 min at 1000 rpm, and the supernatant was discarded. The cell pellet was suspended in 5 mL of complete culture medium. […] Cell passage was performed at a cell density of 2×10^6 viable cells/mL. When the cells were passaged, the original cell suspension was directly made uniform by pipetting. 1/10 (namely 0.5 mL) of the cell suspension was kept, added with 4.5 mL of new complete culture medium and then made uniform by pipetting. The cell culture flask was then placed in a cell incubator for further culturing. Cell plating was performed when the cell confluence reached 2×10^6 viable cells/mL again. With reference to the method for cell passage, 1/10 (namely 0.5 mL) of the cell suspension was kept for further culturing when the cells were plated, and the remaining cell suspension was placed in a 15 mL centrifuge tube. The supernatant was discarded after centrifugation, and 5 mL of complete culture medium was used to resuspend the cells. […] A control group that contains no cell or compound but only complete culture medium and a control group that contains no compound but cells were set. The cell plates were incubated overnight in a cell incubator. […] The cell plates were then incubated in the cell incubator for 72 h. […] The cell plate was left to stand at room temperature for 20 min to stabilize luminescence signals, and the luminescence value of each well was scanned by a Spectramax M3 multi-functional microplate reader (Molecular Devices) at full wavelength.
# Test samples: example compounds of the present invention and bemcentinib (positive control compound).
# Data analysis: cell viability was calculated for compounds at various concentrations using the following formula:
# Cell viability(%)=(Lumtest compound−Lumculture solution control)/(Lumcell control−Lumculture solution control)×100%,
# where Lum refers to the luminescence value of each well of the test compound plate read by the multi-functional microplate reader.
# The data were analyzed using GraphPad Prism 7.0 software, fitted with nonlinear S-curve regression to give dose-response curves, and IC50 values were calculated therefrom.
# [2] = target: T2, kinase Axl (Homo sapiens, UniProt P30530); experiment: Mobility shift assay, inhibitory activity against kinase Axl; assay type: biochemical; conditions: ATP at Km (81 μM), average of two independent experiments
# T2 construct: purchased Carna 08-107
# T2 sequence (P30530 473-894 limits assumed): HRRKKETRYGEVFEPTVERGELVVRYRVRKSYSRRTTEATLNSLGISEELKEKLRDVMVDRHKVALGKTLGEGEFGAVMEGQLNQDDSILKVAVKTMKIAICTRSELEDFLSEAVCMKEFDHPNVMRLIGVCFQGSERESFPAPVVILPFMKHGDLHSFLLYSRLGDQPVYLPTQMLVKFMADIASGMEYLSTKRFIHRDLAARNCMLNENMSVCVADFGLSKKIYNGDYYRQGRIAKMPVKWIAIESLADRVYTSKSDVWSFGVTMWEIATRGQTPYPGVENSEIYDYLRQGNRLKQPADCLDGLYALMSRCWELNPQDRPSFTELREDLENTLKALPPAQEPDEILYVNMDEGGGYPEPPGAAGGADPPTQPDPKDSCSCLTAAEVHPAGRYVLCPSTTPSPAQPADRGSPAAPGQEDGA
# [3] = target: T3, kinase c-MET (Homo sapiens, UniProt P08581); experiment: Mobility shift assay, inhibitory activity against kinase c-MET; assay type: biochemical; conditions: ATP at Km (35 μM), average of two independent experiments
# T3 construct: purchased Carna 08-151
# T3 sequence (P08581 956-1390 limits assumed): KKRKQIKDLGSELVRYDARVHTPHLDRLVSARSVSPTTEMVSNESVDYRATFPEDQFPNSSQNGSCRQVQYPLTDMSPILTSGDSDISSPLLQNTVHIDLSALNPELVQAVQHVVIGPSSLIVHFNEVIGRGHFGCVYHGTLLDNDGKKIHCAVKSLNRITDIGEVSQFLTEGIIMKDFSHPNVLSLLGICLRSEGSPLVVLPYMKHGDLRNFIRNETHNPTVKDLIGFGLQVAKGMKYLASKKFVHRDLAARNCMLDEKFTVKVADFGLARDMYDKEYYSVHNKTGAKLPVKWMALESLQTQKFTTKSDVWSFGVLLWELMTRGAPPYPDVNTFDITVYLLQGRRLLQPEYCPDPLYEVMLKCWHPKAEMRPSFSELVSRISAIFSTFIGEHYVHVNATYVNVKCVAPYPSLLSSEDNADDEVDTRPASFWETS
Compound,GI50 [1],IC50 [2],IC50 [3]
"CCn1cc(-c2cnc(N)c(-c3cc(F)c(NC(=O)c4cn(C(C)C)c(C#N)c(-c5ccc(F)cc5)c4=O)cc3F)c2)cn1 [Example 33, N-(4-(2-amino-5-(1-ethyl-1H-pyrazol-4-yl)pyridin-3-yl)-2,5-difluorophenyl)-6-cyano-5-(4-fluorophenyl)-1-isopropyl-4-oxo-1,4-dihydropyridine-3-carboxamide]",0.23 nM,–,–
"[2H]C([2H])([2H])n1cc(-c2cnc(N)c(-c3cc(F)c(NC(=O)c4cn(C(C)C)c(C#N)c(-c5ccc(F)cc5)c4=O)cc3F)c2)cn1 [Example 34, N-(4-(2-amino-5-(1-methyl-d3-1H-pyrazol-4-yl)pyridin-3-yl)-2,5-difluorophenyl)-6-cyano-5-(4-fluorophenyl)-1-isopropyl-4-oxo-1,4-dihydropyridine-3-carboxamide]",0.28 nM,–,–
"CC(C)n1cc(C(=O)Nc2ccc(-c3cc(-c4cnn(C5CCNCC5)c4)cnc3N)c(F)c2)c(=O)c(-c2ccc(F)cc2)c1C#N [Example 2, N-(4-(2-amino-5-(1-(piperidin-4-yl)-1H-pyrazol-4-yl)pyridin-3-yl)-3-fluorophenyl)-6-cyano-5-(4-fluorophenyl)-1-isopropyl-4-oxo-1,4-dihydropyridine-3-carboxamide]",–,0.46 nM,14 nM
"COc1cc2nccc(Oc3ccc(NC(=O)c4cn(C(C)C)c(C#N)c(-c5ccc(F)cc5)c4=O)cc3F)c2cc1OC [Example 24, 6-cyano-N-(4-((6,7-dimethoxyquinolin-4-yl)oxy)-3-fluoro-phenyl)-5-(4-fluorophenyl)-1-isopropyl-4-oxo-1,4-dihydropyridine-3-carboxamide]",0.36 nM,–,–
"CCn1cc(-c2cnc(N)c(-c3ccc(NC(=O)c4cn(C5CC5)c(C#N)c(-c5ccc(F)cc5)c4=O)cc3F)c2)cn1 [Example 10, N-(4-(2-amino-5-(1-ethyl-1H-pyrazol-4-yl)pyridin-3-yl)-3-fluorophenyl)-6-cyano-5-(4-fluorophenyl)-1-cyclopropyl-4-oxo-1,4-dihydropyridine-3-carboxamide]",–,2.8 nM,23 nM
"CC(C)n1cc(C(=O)Nc2ccc(-c3cc(-c4cnn(C)c4)cnc3N)c(F)c2)c(=O)c(-c2ccc(F)cc2)c1C#N [Example 4, N-(4-(2-amino-5-(1-methyl-1H-pyrazol-4-yl)pyridin-3-yl)-3-fluorophenyl)-6-cyano-5-(4-fluorophenyl)-1-isopropyl-4-oxo-1,4-dihydropyridine-3-carboxamide]",0.57 nM,0.28 nM,3 nM
"CCn1cc(-c2cnc(N)c(-c3ccc(NC(=O)c4cn(C(C)C)c(C#N)c(-c5ccc(F)cc5)c4=O)cc3F)c2)cn1 [Example 3, N-(4-(2-amino-5-(1-ethyl-1H-pyrazol-4-yl)pyridin-3-yl)-3-fluoro-phenyl)-6-cyano-5-(4-fluorophenyl)-1-isopropyl-4-oxo-1,4-dihydropyridine-3-carboxamide]",0.29 nM,2.7 nM,30 nM
"CC(C)n1cc(C(=O)Nc2cc(F)c(-c3cc(-c4cnn(C)c4)cnc3N)cc2F)c(=O)c(-c2ccc(F)cc2)c1C#N [Example 6, N-(4-(2-amino-5-(1-methyl-1H-pyrazol-4-yl)pyridin-3-yl)-2,5-difluorophenyl)-6-cyano-5-(4-fluorophenyl)-1-isopropyl-4-oxo-1,4-dihydropyridine-3-carboxamide]",0.49 nM,2 nM,26 nM
"COc1cc2nccc(Oc3ccc(NC(=O)c4cn(C)c(C#N)c(-c5ccc(F)cc5)c4=O)cc3F)c2cc1OC [Example 21, 6-cyano-N-(4-((6,7-dimethoxyquinolin-4-yl)oxy)-3-fluoro-phenyl)-5-(4-fluorophenyl)-1-methyl-4-oxo-1,4-dihydropyridine-3-carboxamide]",0.29 nM,3.2 nM,–

# — US20210355107A1, “MULTI-SUBSTITUTED PYRIDONE DERIVATIVES AND MEDICAL USE THEREOF” (Beijing Yuezhikangtai Biomedicines Co., Ltd., priority 2018, published 2021)
